From ChEMBL document CHEMBL5034031, “Discovery of Next-Generation Tropomyosin Receptor Kinase Inhibitors for Combating Multiple Resistance Associated with Protein Mutation” (J Med Chem, 2021)

Tests used:
[1] = tested on: BaF3; experiment: Antiproliferative activity against mouse BaF3 cells transfected with ETV6-wild type TRKB assessed as cell viability incubated for 72 hrs by CCK8 assay; type: functional, cell-based; settings: BaF3, 72 h
[2] = tested on: BaF3; experiment: Antiproliferative activity against mouse BAF3 cells transfected with LMNA-TRKA G595R mutant assessed as cell viability incubated for 72 hrs by CCK8 assay; type: functional, cell-based; settings: BaF3, 72 h
[3] = tested on: BaF3; type: functional, cell-based; settings: Mus musculus, BaF3, 72 h
[4] = tested on: BaF3; type: functional, cell-based; settings: Mus musculus, BaF3, 72 h; remark: listed apart in the source
[5] = tested on: BaF3; experiment: Antitumor activity against mouse BAF3 cells harboring ETV6 fused TRKC G623R mutant xenografted in BALB/c nude mouse assessed as tumor growth inhibition at 30 mg/kg, po administered twice daily for 12 to […] consecutive days; type: functional; settings: time 12-14 day, read-out: TGI
[6] = tested on: BaF3; experiment: animal or person; type: functional; settings: Mus musculus, BaF3, po; dose 100 mg/kg; time 12-14 day; read-out: TGI
[7] = Toxicity in BALB/c mouse xenografted with mouse BAF3 cells harboring ETV6 fused TRKC G623R mutant assessed as mortality at 15 to 30 mg/kg, po administered twice daily for 12 to […] consecutive days; type: organism-based; settings: in vivo, dose lower 15 mg/kg, time lower 12 day, dose upper 30 mg/kg, time upper 14 day
[8] = AUC(0 to infinity) in Sprague-Dawley rat at 1 mg/kg, iv measured upto 24 hrs by LC-MS/MS analysis; type: ADME, organism-based; set-up: route intravenous, dose 1 mg/kg, time <=24; settings: in vivo
[9] = Clearance in Sprague-Dawley rat at 1 mg/kg, iv measured upto 24 hrs by LC-MS/MS analysis; type: ADME, organism-based; settings: in vivo
[10] = Clearance in Sprague-Dawley rat at 5 mg/kg, ig measured upto 24 hrs by LC-MS/MS analysis; type: ADME, organism-based; settings: in vivo, po
[11] = Oral bioavailability in Sprague-Dawley rat at 5 mg/kg measured upto 24 hrs by LC-MS/MS analysis; type: ADME, organism-based; settings: in vivo
[12] = AUC(0 to infinity) in Beagle dog at 5 mg/kg, ig measured upto 24 hrs by LC-MS/MS analysis; type: ADME, organism-based, Canis lupus familiaris; set-up: route […], dose 5 mg/kg, time <=24; settings: in vivo, po
[13] = Half life in Beagle dog at 5 mg/kg, ig measured upto 24 hrs by LC-MS/MS analysis; type: ADME, organism-based, Canis lupus familiaris; settings: in vivo, po
[14] = AUC(0 to infinity) in Beagle dog at 1 mg/kg, iv measured upto 24 hrs by LC-MS/MS analysis; type: ADME, organism-based, Canis lupus familiaris; set-up: route intravenous, dose 1 mg/kg, time <=24; settings: in vivo
[15] = Volume of distribution in Beagle dog at 1 mg/kg, iv measured upto 24 hrs by LC-MS/MS analysis; type: ADME, organism-based, Canis lupus familiaris; settings: in vivo, read-out: Vz
[16] = Volume of distribution in Beagle dog at 5 mg/kg, ig measured upto 24 hrs by LC-MS/MS analysis; type: ADME, organism-based, Canis lupus familiaris; settings: in vivo, po
[17] = Clearance in Beagle dog at 1 mg/kg, iv measured upto 24 hrs by LC-MS/MS analysis; type: ADME, organism-based, Canis lupus familiaris; settings: in vivo
[18] = Clearance in Beagle dog at 5 mg/kg, ig measured upto 24 hrs by LC-MS/MS analysis; type: ADME, organism-based, Canis lupus familiaris; settings: in vivo, po
[19] = Oral bioavailability in Beagle dog at 5 mg/kg measured upto 24 hrs by LC-MS/MS analysis; type: ADME, organism-based, Canis lupus familiaris; settings: in vivo
[20] = Plasma protein binding in human; type: ADME, cell-free; settings: read-out: PPB (converted)
[21] = target: Tyrosine-protein kinase receptor UFO (Homo sapiens) (UniProt P30530); experiment: Inhibition of AXL (unknown origin) at 1 uM relative to control
[22] = target: Serine/threonine-protein kinase Chk1 (Homo sapiens) (UniProt O14757); experiment: Inhibition of CHK1 (unknown origin) at 1 uM relative to control
[23] = target: Epidermal growth factor receptor (Homo sapiens) (UniProt P00533); experiment: Inhibition of EGFR (unknown origin) at 1 uM relative to control
[24] = target: Focal adhesion kinase 1 (Homo sapiens) (UniProt Q05397); experiment: Inhibition of FAK (unknown origin) at 1 uM relative to control
[25] = target: Insulin-like growth factor 1 receptor (Homo sapiens) (UniProt P08069); experiment: Inhibition of IGF1R (unknown origin) at 1 uM relative to control
[26] = target: Inhibitor of nuclear factor kappa-B kinase subunit beta (Homo sapiens) (UniProt O14920); experiment: Inhibition of IKBKB (unknown origin) at 1 uM relative to control
[27] = target: Vascular endothelial growth factor receptor 2 (Homo sapiens) (UniProt P35968); experiment: Inhibition of KDR (unknown origin) at 1 uM relative to control
[28] = target: Misshapen-like kinase 1 (Homo sapiens) (UniProt Q8N4C8); experiment: Inhibition of MINK1 (unknown origin) at 1 uM relative to control
[29] = target: Serine/threonine-protein kinase mTOR (Homo sapiens) (UniProt P42345); experiment: Inhibition of mTOR (unknown origin) at 1 uM relative to control
[30] = target: Serine/threonine-protein kinase Nek6 (Homo sapiens) (UniProt Q9HC98); experiment: Inhibition of NEK6 (unknown origin) at 1 uM relative to control
[31] = target: Platelet-derived growth factor receptor alpha (Homo sapiens) (UniProt P16234); experiment: Inhibition of PDGFRalpha (unknown origin) at 1 uM relative to control
[32] = target: [Pyruvate dehydrogenase (acetyl-transferring)] kinase isozyme 1, mitochondrial (Homo sapiens) (UniProt Q15118); experiment: Inhibition of PDK1 (unknown origin) at 1 uM relative to control
[33] = target: Serine/threonine-protein kinase pim-1 (Homo sapiens) (UniProt P11309); experiment: Inhibition of PIM1 (unknown origin) at 1 uM relative to control
[34] = target: Rho-associated protein kinase 1 (Homo sapiens) (UniProt Q13464); experiment: Inhibition of ROCK1 (unknown origin) at 1 uM relative to control
[35] = target: Proto-oncogene tyrosine-protein kinase ROS (Homo sapiens) (UniProt P08922); experiment: Inhibition of ROS1 (unknown origin) at 1 uM relative to control
[36] = target: Proto-oncogene tyrosine-protein kinase Src (Homo sapiens) (UniProt P12931); experiment: Inhibition of SRC (unknown origin) at 1 uM relative to control
[37] = target: SRSF protein kinase 1 (Homo sapiens) (UniProt Q96SB4); experiment: Inhibition of SRPK1 (unknown origin) at 1 uM relative to control
[38] = target: Tyrosine-protein kinase ZAP-70 (Homo sapiens) (UniProt P43403); experiment: Inhibition of ZAP70 (unknown origin) at 1 uM relative to control
[39] = Toxicity in BALB/c mouse xenografted with mouse BAF3 cells harboring TMP3 fused wild type TRKA assessed as mortality at 15 mg/kg, po administered twice daily for 12 to […] consecutive days; type: organism-based; settings: in vivo, time 12-14 day
[40] = target: High affinity nerve growth factor receptor (Homo sapiens, UniProt P04629, G595R)

Misshapen-like kinase 1 (Homo sapiens), sequence (Q8N4C8 whole entry, looked up): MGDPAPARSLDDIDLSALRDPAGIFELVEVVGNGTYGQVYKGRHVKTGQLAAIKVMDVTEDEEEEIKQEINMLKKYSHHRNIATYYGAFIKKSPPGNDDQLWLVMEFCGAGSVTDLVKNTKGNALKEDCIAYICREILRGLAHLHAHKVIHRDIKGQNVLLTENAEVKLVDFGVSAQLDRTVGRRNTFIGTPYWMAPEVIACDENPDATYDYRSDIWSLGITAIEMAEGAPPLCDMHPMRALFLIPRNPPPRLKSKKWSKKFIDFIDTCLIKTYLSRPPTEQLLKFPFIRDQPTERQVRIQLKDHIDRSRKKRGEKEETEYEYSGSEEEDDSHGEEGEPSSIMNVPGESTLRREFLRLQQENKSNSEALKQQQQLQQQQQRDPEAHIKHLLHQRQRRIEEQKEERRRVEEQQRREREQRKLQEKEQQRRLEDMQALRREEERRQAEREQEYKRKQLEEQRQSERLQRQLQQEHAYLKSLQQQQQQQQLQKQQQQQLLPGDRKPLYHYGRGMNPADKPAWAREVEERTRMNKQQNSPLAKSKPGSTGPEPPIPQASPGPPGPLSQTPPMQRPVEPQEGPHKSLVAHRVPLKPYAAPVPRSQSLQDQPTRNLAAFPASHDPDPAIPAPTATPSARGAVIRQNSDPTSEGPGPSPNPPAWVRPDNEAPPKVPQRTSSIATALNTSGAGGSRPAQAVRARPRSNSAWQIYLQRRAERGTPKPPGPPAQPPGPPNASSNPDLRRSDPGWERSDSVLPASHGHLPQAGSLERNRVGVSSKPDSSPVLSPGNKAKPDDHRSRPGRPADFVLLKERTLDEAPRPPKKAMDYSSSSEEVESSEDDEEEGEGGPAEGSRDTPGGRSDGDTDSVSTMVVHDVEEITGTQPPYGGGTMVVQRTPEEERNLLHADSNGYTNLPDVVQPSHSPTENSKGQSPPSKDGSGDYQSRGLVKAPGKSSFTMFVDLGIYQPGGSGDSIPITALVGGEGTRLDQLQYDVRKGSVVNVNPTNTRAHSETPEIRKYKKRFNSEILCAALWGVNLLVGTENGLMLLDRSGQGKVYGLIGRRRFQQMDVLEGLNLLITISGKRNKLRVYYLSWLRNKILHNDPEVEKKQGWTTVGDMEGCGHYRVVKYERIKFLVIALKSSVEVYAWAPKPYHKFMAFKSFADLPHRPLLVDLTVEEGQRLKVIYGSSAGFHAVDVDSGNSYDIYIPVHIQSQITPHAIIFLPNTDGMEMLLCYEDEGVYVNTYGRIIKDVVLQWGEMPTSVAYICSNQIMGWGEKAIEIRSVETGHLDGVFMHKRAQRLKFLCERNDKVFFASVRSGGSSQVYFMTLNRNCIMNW
Serine/threonine-protein kinase pim-1 (Homo sapiens), sequence (P11309 whole entry, looked up): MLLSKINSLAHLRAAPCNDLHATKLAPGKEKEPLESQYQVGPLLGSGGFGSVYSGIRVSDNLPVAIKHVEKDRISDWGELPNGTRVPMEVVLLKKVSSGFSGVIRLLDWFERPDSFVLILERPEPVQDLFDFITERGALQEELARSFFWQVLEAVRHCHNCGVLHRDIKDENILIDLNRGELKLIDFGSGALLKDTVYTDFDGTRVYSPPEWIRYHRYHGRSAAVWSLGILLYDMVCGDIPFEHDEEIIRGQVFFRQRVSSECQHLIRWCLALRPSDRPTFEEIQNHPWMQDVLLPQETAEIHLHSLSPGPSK
SRSF protein kinase 1 (Homo sapiens), sequence (Q96SB4 whole entry): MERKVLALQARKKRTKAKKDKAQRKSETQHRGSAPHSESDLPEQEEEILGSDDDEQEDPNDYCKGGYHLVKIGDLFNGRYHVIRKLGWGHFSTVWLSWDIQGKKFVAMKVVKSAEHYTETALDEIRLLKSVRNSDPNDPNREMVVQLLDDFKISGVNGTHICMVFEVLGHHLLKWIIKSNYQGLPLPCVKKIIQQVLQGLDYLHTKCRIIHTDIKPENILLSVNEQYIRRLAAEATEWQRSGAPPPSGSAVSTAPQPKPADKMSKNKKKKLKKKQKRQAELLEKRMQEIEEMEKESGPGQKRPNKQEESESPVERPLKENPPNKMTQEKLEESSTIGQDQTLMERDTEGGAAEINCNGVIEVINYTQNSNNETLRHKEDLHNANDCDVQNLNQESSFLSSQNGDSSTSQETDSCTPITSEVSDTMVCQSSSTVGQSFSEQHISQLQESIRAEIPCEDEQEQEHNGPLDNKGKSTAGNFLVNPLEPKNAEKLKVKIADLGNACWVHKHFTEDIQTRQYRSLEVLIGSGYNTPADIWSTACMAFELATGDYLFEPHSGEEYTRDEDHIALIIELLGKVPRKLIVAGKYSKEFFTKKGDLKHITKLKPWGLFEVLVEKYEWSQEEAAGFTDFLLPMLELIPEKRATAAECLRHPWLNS
Serine/threonine-protein kinase Chk1 (Homo sapiens), sequence (O14757 whole entry): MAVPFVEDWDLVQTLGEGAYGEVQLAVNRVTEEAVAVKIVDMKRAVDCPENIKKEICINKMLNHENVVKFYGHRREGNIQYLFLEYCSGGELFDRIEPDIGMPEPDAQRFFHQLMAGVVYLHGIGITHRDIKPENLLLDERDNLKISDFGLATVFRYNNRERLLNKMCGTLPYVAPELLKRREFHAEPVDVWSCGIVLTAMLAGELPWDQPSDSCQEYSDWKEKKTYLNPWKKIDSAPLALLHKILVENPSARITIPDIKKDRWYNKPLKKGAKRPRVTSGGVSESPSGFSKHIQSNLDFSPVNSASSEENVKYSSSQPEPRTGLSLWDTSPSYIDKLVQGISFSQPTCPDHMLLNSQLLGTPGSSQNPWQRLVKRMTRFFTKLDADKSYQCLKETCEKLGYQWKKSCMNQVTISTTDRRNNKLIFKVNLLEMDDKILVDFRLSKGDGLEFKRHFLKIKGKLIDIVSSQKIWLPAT
Epidermal growth factor receptor (Homo sapiens), sequence (P00533 whole entry): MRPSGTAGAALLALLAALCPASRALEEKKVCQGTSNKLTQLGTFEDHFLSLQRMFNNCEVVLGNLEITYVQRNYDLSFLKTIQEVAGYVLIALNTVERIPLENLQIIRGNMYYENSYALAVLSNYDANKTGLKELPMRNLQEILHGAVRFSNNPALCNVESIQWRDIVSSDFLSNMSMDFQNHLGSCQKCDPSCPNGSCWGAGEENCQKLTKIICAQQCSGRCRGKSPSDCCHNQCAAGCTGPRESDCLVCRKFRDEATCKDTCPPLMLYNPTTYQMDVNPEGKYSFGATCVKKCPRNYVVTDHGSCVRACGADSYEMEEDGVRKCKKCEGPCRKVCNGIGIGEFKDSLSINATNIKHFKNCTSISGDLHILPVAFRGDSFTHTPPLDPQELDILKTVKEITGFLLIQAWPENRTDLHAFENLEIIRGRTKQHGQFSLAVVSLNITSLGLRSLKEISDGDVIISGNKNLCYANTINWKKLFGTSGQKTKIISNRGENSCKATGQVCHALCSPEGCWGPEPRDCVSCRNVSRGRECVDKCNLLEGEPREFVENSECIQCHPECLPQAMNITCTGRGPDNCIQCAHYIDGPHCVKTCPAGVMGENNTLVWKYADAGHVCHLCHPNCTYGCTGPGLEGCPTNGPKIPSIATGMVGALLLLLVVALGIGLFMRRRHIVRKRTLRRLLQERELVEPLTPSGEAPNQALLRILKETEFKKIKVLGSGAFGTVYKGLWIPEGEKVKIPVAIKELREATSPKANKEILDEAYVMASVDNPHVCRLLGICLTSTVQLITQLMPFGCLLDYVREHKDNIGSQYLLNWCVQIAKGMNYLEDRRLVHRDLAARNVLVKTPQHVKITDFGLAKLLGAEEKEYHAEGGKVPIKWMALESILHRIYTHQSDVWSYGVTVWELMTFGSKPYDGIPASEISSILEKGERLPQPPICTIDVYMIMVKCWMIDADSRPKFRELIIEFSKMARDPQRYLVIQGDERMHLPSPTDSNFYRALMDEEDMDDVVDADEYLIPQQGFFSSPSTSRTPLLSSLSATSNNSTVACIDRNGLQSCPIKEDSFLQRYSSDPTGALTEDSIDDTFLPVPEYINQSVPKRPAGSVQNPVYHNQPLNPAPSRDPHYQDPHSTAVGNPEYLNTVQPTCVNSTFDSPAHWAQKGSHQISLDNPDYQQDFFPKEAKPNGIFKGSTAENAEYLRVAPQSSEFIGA
Tyrosine-protein kinase ZAP-70 (Homo sapiens), sequence (P43403 whole entry, the tested form may be a part): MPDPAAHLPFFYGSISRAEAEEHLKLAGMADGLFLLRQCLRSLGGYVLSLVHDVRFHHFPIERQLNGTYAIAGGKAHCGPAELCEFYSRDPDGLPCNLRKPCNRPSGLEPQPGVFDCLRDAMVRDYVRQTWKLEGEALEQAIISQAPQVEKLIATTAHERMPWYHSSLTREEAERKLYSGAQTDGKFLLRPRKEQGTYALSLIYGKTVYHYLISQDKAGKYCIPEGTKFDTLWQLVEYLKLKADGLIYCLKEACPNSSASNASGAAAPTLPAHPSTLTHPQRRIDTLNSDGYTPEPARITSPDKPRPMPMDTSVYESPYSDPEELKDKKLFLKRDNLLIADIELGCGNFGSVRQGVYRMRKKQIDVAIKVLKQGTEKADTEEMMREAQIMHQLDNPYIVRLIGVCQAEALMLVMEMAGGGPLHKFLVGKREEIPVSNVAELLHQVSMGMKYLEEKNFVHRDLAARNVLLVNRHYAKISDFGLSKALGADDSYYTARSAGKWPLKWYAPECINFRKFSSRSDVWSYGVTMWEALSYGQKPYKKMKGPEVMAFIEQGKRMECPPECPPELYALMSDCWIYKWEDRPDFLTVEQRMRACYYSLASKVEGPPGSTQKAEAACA
Serine/threonine-protein kinase Nek6 (Homo sapiens), sequence (Q9HC98 whole entry): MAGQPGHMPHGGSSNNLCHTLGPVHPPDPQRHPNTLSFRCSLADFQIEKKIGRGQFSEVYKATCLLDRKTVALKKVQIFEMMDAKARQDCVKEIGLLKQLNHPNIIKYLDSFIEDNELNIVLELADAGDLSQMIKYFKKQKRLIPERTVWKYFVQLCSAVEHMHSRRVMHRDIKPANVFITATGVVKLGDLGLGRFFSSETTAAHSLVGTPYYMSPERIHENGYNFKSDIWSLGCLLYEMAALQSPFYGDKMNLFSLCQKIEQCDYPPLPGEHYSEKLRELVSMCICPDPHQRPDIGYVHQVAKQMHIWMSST

C[C@@H](Nc1ccn2ncc(-c3cnn(CCO)c3)c2n1)c1cc(F)ccc1OCC(F)F showed an IC50 [1] of 0.3 nM, an IC50 [2] of 1.6 nM and an IC50 [3] of 10.9 nM. The IC50 [4] was 0.2 nM, the inhibition in vivo at 30 mg/kg [5] was 88% and the inhibition in vivo at 100 mg/kg [6] was 99%. The Activity [7] was “Non-Toxic”, the AUC(0-inf) [8] was 213 ng·h/mL and the clearance [9] was 83.3 mL/min/kg. It also gave a CL/F [10] of 158 mL/min/kg, a bioavailability [11] of 49% and an AUC(0-inf) [12] of 9630 ng·h/mL. For the same compound, the half-life [13] was 6.28 h, the AUC(0-inf) [14] was 2140 ng·h/mL and the Vd [15] was 4.94 L/kg. It also gave a Vz [16] of 4.77 L/kg, a clearance [17] of 7.83 mL/min/kg and a CL/F [18] of 9.17 mL/min/kg. The bioavailability [19] was 92%, the fraction unbound [20] was 0.044 and the inhibition [21] was over 80%. The inhibition [22] was under 50%, the inhibition [23] was under 50% and the inhibition [24] was over 80%. For the same compound, the inhibition [25] was under 50%, the inhibition [26] was under 50% and the inhibition [27] was under 50%. For the same compound, the inhibition [28] was under 50%, the inhibition [29] was under 50% and the inhibition [30] was under 50%. For the same compound, the inhibition [31] was under 50%, the inhibition [32] was under 50% and the inhibition [33] was under 50%. It also gave an inhibition [34] of under 50%, an inhibition [35] of over 80% and an inhibition [36] of under 50%. The inhibition [37] was under 50%, the inhibition [38] was under 50% and the Activity [39] was “Non-Toxic”. For the same compound, the IC50 [40] was 0.2 nM.
